This is an account of results in patent US9078949B2, “Compositions of partially deacetylated chitin derivatives” (GENIS HF., priority 2005, dated 2015).

pIC50: −log10 of the molar value. Like-named read-outs stand apart in the source and are kept apart here.

Data set [1] is described as follows: Absorption of chitooligosaccharides into the blood of a human volunteer (MALDI-TOF MS, GPC, HPIEC). Type of data set: in vivo. To be noted: for Mass calc (HPIEC homologue): blood sample (7.0 ml) after 3 weeks of ChOS consumption. The procedure: Chitooligomers composed of N-acetyl glucosamine and glucosamine were prepared by Genis, Reykjavik, Iceland. Briefly, chitin was partially deacetylated in alkali, washed and hydrolysed to oligomers by chitinase. Oligomers were ultrafiltrated, desalted and spray dried to a fine white powder. Average degree of deacetylation was 47% (FA 0.53). Analysis and quantification of oligomers and homologues were performed, using the same methods as for the blood.
A voluntary subject was consuming daily 1.8 g of ChOS (Genis ehf; S41124-1K) for a period of 4 weeks. Blood samples were collected within a period of 6 weeks. The first sample was taken before consumption of ChOS. The following 4 samples were taken weekly starting 1 week after the first consumption. Sample 6 was taken 2 weeks after stopping the consumption of ChOS. The volume of each sample was 7.0 ml. The blood samples were centrifuged for 30 min at 3000 rpm. The serum was collected. Methanol and sodium chloride were added to a final concentration of 30% methanol and 0.1 mg/ml sodium chloride followed by another centrifugation step. Samples of 500 μl were filtered through 3 kDa cut-off membranes (ultrafiltration). The supernatant was filled up for 3 times. Appropriate filtrates were pooled, the methanol was removed in vacuum, and the samples were finally lyophilised.
The lyophilised samples (app. 100 μg) were redissolved in 100 μl of methanol/water (v/v 50:50). An aliquot of the solution was mixed on the target with 2 μl of a solution of DHB in 30% aqueous ethanol ([…]). The drop was dried under a gentle stream of air. Mass spectra were recorded on a Bruker Reflex II (Daltonik, Bremen, Germany) in the positive ion mode. For ionisation, a nitrogen laser (337 nm, 3 ns pulse width, 3 Hz) was used. All spectra were measured in the reflector mode using external calibration. Monoisotopic peaks are labelled in all mass spectra.
The lyophilised samples (appr. 100 μg) were redissolved in 100 μl of methanol/deuterium oxide (v/v 50:50). A 10-fold molar excess of hexadeutero acetic anhydride was added as well as 3 drops of glacial tetradeutero acetic acid. The solution was stirred at 30° C. for 12 h. The reaction was stopped by addition of an equimolar amount of ammonia. The solutions were lyophilised and redissolved in 100 μl of ammonia. The concentration of ammonia was set to a 10-fold molar excess with respect to the moles of N-acetyl glucosamine units (GlcNAc or A). The solution was stirred at 22° C. over night. The ammonia was removed in vacuum, followed by lyophilisation of the samples. […] The concentration of potassium hydroxide was set to a 2-fold molar excess with respect to the moles of GlcNAc units. The solution was stirred for 10 h at r. t. neutralized by addition of cation exchange resin (H^+ form) followed by filtration and lyophilisation of the filtrate.
MALDI-TOF mass spectra were taken as described in Example 4. The quantification of relative signal intensities leads to the composition of homologues in the mixture.
The samples are prepared as described under Homologue determination by MALDI-TOF MS. Subsequently, a standard was added to each sample. The standard, a chitin oligomer (An), has to be of the same DP+/−1 as the analyte. A serial dilution of this standard was used. A comparison of the signal intensities of the analyte with the standard gives the concentration of the analyte. […]
Mixtures of homologues (and oligomers) obtained from the GPC separation were analysed by HPIEC. […]

The target in data set [2] is T1, Chitinase A (Serratia marcescens, UniProt P07254). Nature of the data set: Blocking of Chitinase A activity (4-MU-A3 substrate, fluorescence). Type of data set: biochemical. To be noted: for blocking of chitinase activity: pH 7.4. How it is done: Chitooligosaccharides (ChOS) (lots No. G020418 and G020218) were fractionated into homologue fractions, either by cation exchange chromatography or gel permeation chromatography or by the combination of both methods. The products were freeze dried and analysed for structure and sequence by MALDI-TOF mass spectrometry. Three other un-fractionated ChOS lots from Genis were also analysed by the same MALDI-TOF method (lots No. G040823, G050421 and G050421UF; where UF stands for ultrafiltrated through 1 kDa membrane to reduce the content of DP≦5).
T1 sequence (P07254 24-563): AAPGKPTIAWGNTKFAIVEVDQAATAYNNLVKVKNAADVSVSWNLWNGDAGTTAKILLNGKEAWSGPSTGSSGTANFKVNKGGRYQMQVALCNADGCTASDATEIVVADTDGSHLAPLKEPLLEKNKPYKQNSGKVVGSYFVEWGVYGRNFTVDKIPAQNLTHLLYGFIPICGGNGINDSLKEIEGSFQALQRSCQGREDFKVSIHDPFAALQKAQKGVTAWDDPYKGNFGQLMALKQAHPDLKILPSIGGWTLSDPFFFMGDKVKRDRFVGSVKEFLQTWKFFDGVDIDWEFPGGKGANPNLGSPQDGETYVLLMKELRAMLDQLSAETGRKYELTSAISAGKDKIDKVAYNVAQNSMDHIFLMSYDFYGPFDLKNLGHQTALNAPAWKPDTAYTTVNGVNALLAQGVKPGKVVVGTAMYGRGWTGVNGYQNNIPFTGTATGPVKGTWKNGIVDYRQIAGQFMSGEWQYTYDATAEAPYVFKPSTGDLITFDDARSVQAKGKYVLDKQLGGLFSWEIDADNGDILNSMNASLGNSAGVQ
A purified Chitinase A preparation from S. marcescens was used as a standard Family 18 chitinase, and 4-methylumbelliferyl-beta-D-N,N′-triacetylchitotrioside (4-MU-A3), a chitin tetramer (A4) analogue, was used as a standard chitinase substrate.
The standard Chitinase A solution was 0.5 nM (500 pM) in 0.1 mg/ml BSA, 50 mM phosphate buffer pH 7.4 (Chit-A sol.) and the substrate solution was 40 μM 4-MU-A3 in 50 mM phosphate buffer pH 7.4.
Different concentration of each pure ChOS homologue (usually 0, 25, 50, 100, 200, 400 and 800 μM) was made in the substrate buffer. For the assay, 25 μl of the Chit-A solution was mixed with 25 μl of the substrate/blocking solution, incubated at 37° C. for 10 min. The reaction was stopped with 1.95 ml 0.2 M sodium […] buffer (Na2CO3). The formation of the product, 4-Methylumbelliferone (4-MU) was read for each reaction in a Perken-Elmer LS SOB Fluorometer. The excitation wavelength was 380 nm (5 nm adjusting slit) and the emission wavelength was 460 nm (4 nm adjusting slit). Each reaction was read in triplicate. […] Affinity of each homologue was calculated as inverted IC50.
Even tough the chitinase A has an optimal activity at pH 5.5, the pH for the blocking experiments was adjusted at pH 7.4. This was done in order to free the amine groups of ChOS from protons, since earlier pilot experiments performed at pH 5.5 indicated low blocking activities of the ChOS homologues. Also this pH better resembles the physiological pH of blood and other physiological fluids, better reflecting the behaviour of the oligosaccharides in the human body.

Data set [3] concerns the target T1, Chitinase A. Nature of the data set: Cleavage of oligomers by Chitinase A judged by MALDI-TOF (biostability). To be noted: assay conditions (pH 5.5 and pH 7.4). Type of data set: in vitro ADME, S. marcescens.
The target of data set [4] is HC gp-39 (39-kDa Human Cartilage Glycoprotein) (Homo sapiens, UniProt P36222). As to the kind of experiment: Binding to HC gp-39 by intrinsic tryptophan fluorescence.
Sequence of HC gp-39 (39-kDa Human Cartilage Glycoprotein) (P36222 22-383): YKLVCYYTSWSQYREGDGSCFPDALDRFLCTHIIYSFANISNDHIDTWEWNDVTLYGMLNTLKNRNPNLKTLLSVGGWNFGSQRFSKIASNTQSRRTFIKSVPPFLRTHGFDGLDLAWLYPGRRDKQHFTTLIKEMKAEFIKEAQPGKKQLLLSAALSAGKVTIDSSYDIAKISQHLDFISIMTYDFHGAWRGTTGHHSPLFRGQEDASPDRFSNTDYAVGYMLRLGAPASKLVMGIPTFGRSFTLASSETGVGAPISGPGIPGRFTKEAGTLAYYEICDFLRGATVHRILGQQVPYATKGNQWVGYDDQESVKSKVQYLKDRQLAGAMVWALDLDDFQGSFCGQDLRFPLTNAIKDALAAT
Experimental: The affinities of non-covalent complexes between ChOS and HC gp-39 were analysed making use of the change of the intrinsic tryptophan fluorescence of the protein under binding conditions. The change of fluorescence intensity is caused by ligand-induced changes of the solvent cover of tryptophan residues and positively correlated with the sugar concentration.
HC gp-39 was dissolved in 25 mM Tris-HCl buffer pH 7.4 containing 1 mM dithiothreitol to a final concentration of 1.00 μM (protein solution). Different concentrations of homologues were prepared in 25 mM Tris-HCl buffer pH 7.4 containing 1 mM dithiothreitol (sugar solution). […] The fluorescence was read for each reaction in a Perkin-Elmer LS SOB fluorescence spectrometer (Perkin-Elmer, Überlingen, Germany). […] Each reaction was measured in triplicate.
From the row fluorescence data the fluorescence of the blank was subtracted. F-F0 was plotted versus the concentration of the homologue and the data were fitted by non-linear regression to a one-site saturation model employing SigmaPlot® software to obtain binding isotherms. y=Bmax*x/(Kd+x) Bmax: fluorescence intensity for a saturated binding domain of HC gp-39 Kd: dissociation constant.

On to `CC(=O)N[C@H]1[C@H](O[C@H]2[C@H](O)[C@@H](NC(C)=O)C(O)O[C@@H]2CO)O[C@H](CO)[C@@H](O)[C@@H]1O` (stereo partly drawn) [Homologue A2], for which, in data set [1] (GPC, HPIEC and MALDI-TOF), the “Mass calc (HPIEC homologue)” value is recorded as 270 μg. In addition, the “Conc (HPIEC homologue)” value in data set [1] (blood sample after 3 weeks of ChOS consumption, GPC, HPIEC and MALDI-TOF) was 39 μg/mL. For the same molecule, in data set [1] (post 1 week of ChOS consumption, 1.8 g daily), the “oligomers observed in blood sample” value is “traces”.
As to `CC(=O)N[C@H]1[C@H](O[C@H]2[C@H](O)[C@@H](NC(C)=O)C(O)O[C@@H]2CO)O[C@H](CO)[C@@H](O[C@@H]2O[C@H](CO)[C@@H](O)[C@H](O)[C@H]2NC(C)=O)[C@@H]1O` (stereo partly drawn) [Homologue A3], in data set [2], the pIC50 is 3.66. The “Mass calc (HPIEC homologue)” value in data set [1] (GPC, HPIEC and MALDI-TOF) is on record as 30 μg. The concentration at 3 weeks in data set [1] (human, serum, oral, 1.8 g daily (ChOS mixture), blood sample after 3 weeks of ChOS consumption, GPC, HPIEC and MALDI-TOF, read-out: Conc (HPIEC homologue)) is 4000 ng/mL.
For the molecule `CC(=O)N[C@H]1[C@H](O[C@H]2[C@H](O)[C@@H](NC(C)=O)[C@H](O[C@H]3[C@H](O)[C@@H](NC(C)=O)C(O)O[C@@H]3CO)O[C@@H]2CO)O[C@H](CO)[C@@H](O[C@@H]2O[C@H](CO)[C@@H](O[C@@H]3O[C@H](CO)[C@@H](O[C@@H]4O[C@H](CO)[C@@H](O)[C@H](O)[C@H]4NC(C)=O)[C@H](O)[C@H]3NC(C)=O)[C@H](O)[C@H]2NC(C)=O)[C@@H]1O` (stereo partly drawn) [Homologue A6], the “cleavage by Chitinase A” value in data set [3] is “cleaved”.
As to `N[C@H]1[C@H](O[C@H]2[C@H](O)[C@@H](N)[C@H](O[C@H]3[C@H](O)[C@@H](N)[C@H](O[C@H]4[C@H](O)[C@@H](N)[C@H](O[C@H]5[C@H](O)[C@@H](N)[C@H](O[C@H]6[C@H](O)[C@@H](N)C(O)O[C@@H]6CO)O[C@@H]5CO)O[C@@H]4CO)O[C@@H]3CO)O[C@@H]2CO)O[C@H](CO)[C@@H](O)[C@@H]1O` (stereo partly drawn) [Homologue D6], in data set [2], the “blocking of chitinase activity” value was “poor blockers”. The pIC50 in data set [2] (pH 7.4, 37° C., 10 min, 4-MU-A3 substrate, NB = no blocking found, read-out: IC50) is 2.70. The “dissociation constant” value in data set [4] is listed as “μmolar range”.
With `NC1C(OC2C(CO)OC(OC3C(CO)OC(OC4C(CO)OC(OC5C(CO)OC(OC6C(CO)OC(OC7C(CO)OC(OC8C(CO)OC(OC9C(CO)OC(O)C(N)C9O)C(N)C8O)C(N)C7O)C(N)C6O)C(N)C5O)C(N)C4O)C(N)C3O)C(N)C2O)OC(CO)C(O)C1O` (stereo not drawn) [Homologue D9], the “blocking of chitinase activity” value in data set [2] is recorded as “poor blockers”.
Still for that read-out and setting: as for `NC1C(OC2C(CO)OC(OC3C(CO)OC(OC4C(CO)OC(OC5C(CO)OC(OC6C(CO)OC(OC7C(CO)OC(OC8C(CO)OC(OC9C(CO)OC(OC%10C(CO)OC(OC%11C(CO)OC(OC%12C(CO)OC(O)C(N)C%12O)C(N)C%11O)C(N)C%10O)C(N)C9O)C(N)C8O)C(N)C7O)C(N)C6O)C(N)C5O)C(N)C4O)C(N)C3O)C(N)C2O)OC(CO)C(O)C1O` (stereo not drawn) [Homologue D12], the entry is “poor blockers”.
